Assay results reported in US12077503B2, “Substituted cyclic amides and their use as herbicides” (FMC CORPORATION, priority 2015, dated 2024).

Key:
Format in all cases: in vivo
[1] = system: barnyardgrass (Echinochloa crus-galli); assay: Test G Pre-Emergence Protocol; details: Echinochloa crus-galli, pre-emergence, 312 h, evaluated after 13 days; for pest or weed control at 15.625 g/ha: 15.625 g ai/ha; for pest or weed control at 15.625 g/ha / pest or weed control at 250 g/ha: read-out: Barnyardgrass damage rating (100=total damage to plant; 0=no damage to plant); for pest or weed control at 62.5 g/ha: 62.5 g ai/ha, 100=total damage to plant, 0=no damage to plant, read-out: Barnyardgrass damage rating; for pest or weed control at 250 g/ha: 250 g ai/ha
Summary of the method: (§1)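 Pots of seeds in standard soil were grown for one day in a glasshouse (24/16 °C day/night, 14 h light, 65% humidity), then sprayed with compound in acetone/water 50:50 with 0.5% Tween 20 at 15.625, 62.5 or 250 g/ha. Damage was scored after 13 days on a 0 (none) to 100 (total) scale.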

corn (Zea mays) [2] = assay: Test G Pre-Emergence Protocol; details: Zea mays, pre-emergence, 312 h, evaluated after 13 days; for plant injury at 15.625 g/ha: 15.625 g ai/ha; for plant injury at 15.625 g/ha / plant injury at 250 g/ha: read-out: Corn damage rating (100=total damage to plant; 0=no damage to plant); for plant injury at 62.5 g/ha: 62.5 g ai/ha, 100=total damage to plant, 0=no damage to plant, read-out: Corn damage rating; for plant injury at 250 g/ha: 250 g ai/ha
Summary of the method: as §1

[3] = system: giant foxtail (Setaria faberi); assay: Test G Pre-Emergence Protocol; details: Setaria faberi, pre-emergence, 312 h, evaluated after 13 days; for pest or weed control at 15.625 g/ha: 15.625 g ai/ha; for pest or weed control at 15.625 g/ha / pest or weed control at 250 g/ha: read-out: Foxtail, Giant damage rating (100=total damage to plant; 0=no damage to plant); for pest or weed control at 62.5 g/ha: 62.5 g ai/ha, 100=total damage to plant, 0=no damage to plant, read-out: Foxtail, Giant damage rating; for pest or weed control at 250 g/ha: 250 g ai/ha
Summary of the method: as §1

[4] = system: ivy-leaved morning glory (Ipomoea hederacea); assay: Test G Pre-Emergence Protocol; details: Ipomoea, pre-emergence, 312 h, evaluated after 13 days; for pest or weed control at 15.625 g/ha: 15.625 g ai/ha; for pest or weed control at 15.625 g/ha / pest or weed control at 250 g/ha: read-out: Morningglory, Ivy-leaved damage rating (100=total damage to plant; 0=no damage to plant); for pest or weed control at 62.5 g/ha: 62.5 g ai/ha, 100=total damage to plant, 0=no damage to plant, read-out: Morningglory, Ivy-leaved damage rating; for pest or weed control at 250 g/ha: 250 g ai/ha
Summary of the method: as §1

[5] = system: redroot pigweed (Amaranthus retroflexus); assay: Test G Pre-Emergence Protocol; details: Amaranthus retroflexus, pre-emergence, 312 h, evaluated after 13 days; for pest or weed control at 15.625 g/ha: 15.625 g ai/ha; for pest or weed control at 15.625 g/ha / pest or weed control at 250 g/ha: read-out: Pigweed, Redroot damage rating (100=total damage to plant; 0=no damage to plant); for pest or weed control at 62.5 g/ha: 62.5 g ai/ha, 100=total damage to plant, 0=no damage to plant, read-out: Pigweed, Redroot damage rating; for pest or weed control at 250 g/ha: 250 g ai/ha
Summary of the method: as §1

[6] = system: velvetleaf (Abutilon theophrasti); assay: Test G Pre-Emergence Protocol; details: Abutilon theophrasti, pre-emergence, 312 h, evaluated after 13 days; for pest or weed control at 15.625 g/ha: 15.625 g ai/ha; for pest or weed control at 15.625 g/ha / pest or weed control at 250 g/ha: read-out: Velvetleaf damage rating (100=total damage to plant; 0=no damage to plant); for pest or weed control at 62.5 g/ha: 62.5 g ai/ha, 100=total damage to plant, 0=no damage to plant, read-out: Velvetleaf damage rating; for pest or weed control at 250 g/ha: 250 g ai/ha
Summary of the method: as §1

[7] = system: barnyardgrass (Echinochloa crus-galli); assay: Test G Post-Emergence Protocol; details: Echinochloa crus-galli, post-emergence, 312 h, read-out: Barnyardgrass damage rating; for pest or weed control at 15.625 g/ha: 15.625 g ai/ha, evaluated after 13 days (100=total damage to plant; 0=no damage to plant); for pest or weed control at 62.5 g/ha: 62.5 g ai/ha; for pest or weed control at 62.5 g/ha / pest or weed control at 250 g/ha: evaluated after 13 days, 100=total damage to plant, 0=no damage to plant; for pest or weed control at 250 g/ha: 250 g ai/ha
Summary of the method: (§2)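 Eight days post-sowing, plants received a spray of test compound (acetone/water 50:50, 0.5% Tween 20) at 15.625, 62.5 or 250 g/ha. Glasshouse regime thereafter: 24/16 °C, 14 h light, 65% humidity. Assessment after 13 days on a 0–100 damage scale.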

corn (Zea mays) [8] = assay: Test G Post-Emergence Protocol; details: Zea mays, post-emergence, 312 h, read-out: Corn damage rating; for plant injury at 15.625 g/ha: 15.625 g ai/ha, evaluated after 13 days (100=total damage to plant; 0=no damage to plant); for plant injury at 62.5 g/ha: 62.5 g ai/ha; for plant injury at 62.5 g/ha / plant injury at 250 g/ha: evaluated after 13 days, 100=total damage to plant, 0=no damage to plant; for plant injury at 250 g/ha: 250 g ai/ha
Summary of the method: as §2

[9] = system: giant foxtail (Setaria faberi); assay: Test G Post-Emergence Protocol; details: Setaria faberi, post-emergence, 312 h, read-out: Foxtail, Giant damage rating; for pest or weed control at 15.625 g/ha: 15.625 g ai/ha, evaluated after 13 days (100=total damage to plant; 0=no damage to plant); for pest or weed control at 62.5 g/ha: 62.5 g ai/ha; for pest or weed control at 62.5 g/ha / pest or weed control at 250 g/ha: evaluated after 13 days, 100=total damage to plant, 0=no damage to plant; for pest or weed control at 250 g/ha: 250 g ai/ha
Summary of the method: as §2

[10] = system: ivy-leaved morning glory (Ipomoea hederacea); assay: Test G Post-Emergence Protocol; details: Ipomoea, post-emergence, 312 h, read-out: Morningglory, Ivy-leaved damage rating; for pest or weed control at 15.625 g/ha: 15.625 g ai/ha, evaluated after 13 days (100=total damage to plant; 0=no damage to plant); for pest or weed control at 62.5 g/ha: 62.5 g ai/ha; for pest or weed control at 62.5 g/ha / pest or weed control at 250 g/ha: evaluated after 13 days, 100=total damage to plant, 0=no damage to plant; for pest or weed control at 250 g/ha: 250 g ai/ha
Summary of the method: as §2

[11] = system: redroot pigweed (Amaranthus retroflexus); assay: Test G Post-Emergence Protocol; details: Amaranthus retroflexus, post-emergence, 312 h, read-out: Pigweed, Redroot damage rating; for pest or weed control at 15.625 g/ha: 15.625 g ai/ha, evaluated after 13 days (100=total damage to plant; 0=no damage to plant); for pest or weed control at 62.5 g/ha: 62.5 g ai/ha; for pest or weed control at 62.5 g/ha / pest or weed control at 250 g/ha: evaluated after 13 days, 100=total damage to plant, 0=no damage to plant; for pest or weed control at 250 g/ha: 250 g ai/ha
Summary of the method: as §2

[12] = system: velvetleaf (Abutilon theophrasti); assay: Test G Post-Emergence Protocol; details: Abutilon theophrasti, post-emergence, 312 h, read-out: Velvetleaf damage rating; for pest or weed control at 15.625 g/ha: 15.625 g ai/ha, evaluated after 13 days (100=total damage to plant; 0=no damage to plant); for pest or weed control at 62.5 g/ha: 62.5 g ai/ha; for pest or weed control at 62.5 g/ha / pest or weed control at 250 g/ha: evaluated after 13 days, 100=total damage to plant, 0=no damage to plant; for pest or weed control at 250 g/ha: 250 g ai/ha
Summary of the method: as §2

Row | SMILES | pest or weed control at 15.625 g/ha [1] | pest or weed control at 62.5 g/ha [1] | pest or weed control at 250 g/ha [1] | plant injury at 15.625 g/ha (corn (Zea mays) [2]) | plant injury at 62.5 g/ha (corn (Zea mays) [2]) | plant injury at 250 g/ha (corn (Zea mays) [2]) | pest or weed control at 15.625 g/ha [3] | pest or weed control at 62.5 g/ha [3] | pest or weed control at 250 g/ha [3] | pest or weed control at 15.625 g/ha [4] | pest or weed control at 62.5 g/ha [4] | pest or weed control at 250 g/ha [4] | pest or weed control at 15.625 g/ha [5] | pest or weed control at 62.5 g/ha [5] | pest or weed control at 250 g/ha [5] | pest or weed control at 15.625 g/ha [6] | pest or weed control at 62.5 g/ha [6] | pest or weed control at 250 g/ha [6] | pest or weed control at 15.625 g/ha [7] | pest or weed control at 62.5 g/ha [7] | further results
1 | C=C(C)c1cccc([C@@H]2CN(C)C(=O)[C@H]2C(=O)Nc2cccc(F)c2C)c1 (racemic) [Compound 1828] | 70% | 80% | 90% | 0% | 10% | 70% | 80% | 90% | 90% | 0% | 0% | 30% | 0% | 0% | 0% | 0% | 0% | 30% | 30% | 80% | pest or weed control at 250 g/ha [7]: 80%; plant injury at 15.625 g/ha (corn (Zea mays) [8]): 0%; plant injury at 62.5 g/ha (corn (Zea mays) [8]): 10%; plant injury at 250 g/ha (corn (Zea mays) [8]): 70%; pest or weed control at 15.625 g/ha [9]: 70%; pest or weed control at 62.5 g/ha [9]: 80%; pest or weed control at 250 g/ha [9]: 80%; pest or weed control at 15.625 g/ha [10]: 20%; pest or weed control at 62.5 g/ha [10]: 60%; pest or weed control at 250 g/ha [10]: 70%; pest or weed control at 15.625 g/ha [11]: 0%; pest or weed control at 62.5 g/ha [11]: 0%; pest or weed control at 250 g/ha [11]: 20%; pest or weed control at 15.625 g/ha [12]: 0%; pest or weed control at 62.5 g/ha [12]: 20%; pest or weed control at 250 g/ha [12]: 10%
2 | CN1C[C@@H](c2ccc(C(F)(F)F)cc2)[C@H](C(=O)Nc2ccc(F)nn2)C1=O (racemic) [Compound 1655] | 0% | 0% | 0% | 0% | 0% | 0% | 0% | 0% | 30% | 0% | 0% | 0% | 0% | 0% | 0% | 0% | 0% | 0% | 0% | 20% | pest or weed control at 250 g/ha [7]: 20%; plant injury at 15.625 g/ha (corn (Zea mays) [8]): 0%; plant injury at 62.5 g/ha (corn (Zea mays) [8]): 0%; plant injury at 250 g/ha (corn (Zea mays) [8]): 0%; pest or weed control at 15.625 g/ha [9]: 0%; pest or weed control at 62.5 g/ha [9]: 30%; pest or weed control at 250 g/ha [9]: 30%; pest or weed control at 15.625 g/ha [10]: 0%; pest or weed control at 62.5 g/ha [10]: 0%; pest or weed control at 250 g/ha [10]: 0%; pest or weed control at 15.625 g/ha [11]: 0%; pest or weed control at 62.5 g/ha [11]: 0%; pest or weed control at 250 g/ha [11]: 40%; pest or weed control at 15.625 g/ha [12]: 0%; pest or weed control at 62.5 g/ha [12]: 0%; pest or weed control at 250 g/ha [12]: 0%
